Reference: ChEMBL document CHEMBL1201862, “PubChem BioAssay data set” (2004)
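96-well plates; 48 h exposure; 5 concentrations. Endpoints by linear interpolation between flanking doses. Not reached: highest tested concentration assigned. Abbreviation: GI50, concentration required for 50% inhibition of growth.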 Calls of active or inactive are those of the source. No stated cut-off is given here; in the data, active = GI50 up to about 1.1 µM and inactive = higher.

Columns and labels:
Experiment in all cases: NCI tumour cell line growth inhibition, 48 h
[1] = tested on: MDA-MB-231
[2] = tested on: Malme-3M
[3] = tested on: UACC-257
[4] = tested on: UACC-62
[5] = tested on: DU-145
[6] = tested on: UO-31
[7] = tested on: SK-OV-3
[8] = tested on: SK-MEL-5
[9] = tested on: NCI-H522
[10] = tested on: MOLT-4
[11] = tested on: HT-29
[12] = tested on: SNB-19
[13] = tested on: BT-549
[14] = tested on: RPMI-8226
[15] = tested on: A549
[16] = tested on: OVCAR-3
[17] = tested on: Hs-578T
[18] = tested on: SF-539
[19] = tested on: NCI-H226
[20] = tested on: SR
[21] = tested on: MCF7
[22] = tested on: SF-268
[23] = tested on: COLO 205
[24] = tested on: HCT-116
[25] = tested on: KM12
[26] = tested on: ACHN
[27] = tested on: HOP-92
[28] = tested on: U-251
[29] = tested on: T47D
[30] = tested on: IGROV-1
[31] = tested on: PC-3
[32] = tested on: SK-MEL-28
[33] = tested on: SW-620
[34] = tested on: HOP-62
[35] = tested on: SK-MEL-2
[36] = tested on: M14
[37] = tested on: NCI-H460
[38] = tested on: OVCAR-4
[39] = tested on: CCRF-CEM
[40] = tested on: NCI-H23
[41] = tested on: HCT-15
[42] = tested on: SF-295
[43] = tested on: CAKI-1
[44] = tested on: LOX IMVI
[45] = tested on: TK-10
[46] = tested on: SN12C
[47] = tested on: NCI/ADR-RES
[48] = tested on: MDA-MB-435
[49] = tested on: A498
[50] = tested on: 786-0
[51] = tested on: RXF 393
[52] = tested on: HL-60
[53] = tested on: OVCAR-5
[54] = tested on: K562
[55] = tested on: HCC 2998
[56] = tested on: SNB-75
[57] = tested on: MDA-N
[58] = tested on: EKVX
[59] = tested on: OVCAR-8

With `C[C@]12CC[C@H]3[C@@H](CC=C4C[C@@H](N5CCCC5)CC[C@@]43C)[C@@H]1C/C(=C\c1ccc([N+](=O)[O-])cc1)[C@@H]2O` the GI50 [1] was 16.2 µM (inactive), the GI50 [2] was 16.5 µM (inactive) and the GI50 [3] was 16.4 µM (inactive). The GI50 [4] was 15.8 µM (inactive), the GI50 [5] was 17.3 µM (inactive) and the GI50 [6] was 15.1 µM (inactive). For the same compound, the GI50 [7] was 15.9 µM (inactive), the GI50 [8] was 15 µM (inactive) and the GI50 [9] was 17.1 µM (inactive). The GI50 [10] was 0.942 µM (active), the GI50 [11] was 13.2 µM (inactive) and the GI50 [12] was 24.7 µM (inactive). For the same compound, the GI50 [13] was 13.5 µM (inactive), the GI50 [14] was 16.1 µM (inactive) and the GI50 [15] was 17.1 µM (inactive). For the same compound, the GI50 [16] was 17 µM (inactive), the GI50 [17] was 18.5 µM (inactive) and the GI50 [18] was 15.4 µM (inactive). The GI50 [19] was 18.5 µM (inactive), the GI50 [20] was 1.88 µM (inactive) and the GI50 [21] was 20.7 µM (inactive). For the same compound, the GI50 [22] was 17.5 µM (inactive), the GI50 [23] was 16.6 µM (inactive) and the GI50 [24] was 16.3 µM (inactive). For the same compound, the GI50 [25] was 16.2 µM (inactive), the GI50 [26] was 15.9 µM (inactive) and the GI50 [27] was 13 µM (inactive). The GI50 [28] was 12.7 µM (inactive), the GI50 [29] was 20.7 µM (inactive) and the GI50 [30] was 14.8 µM (inactive). The GI50 [31] was 24.3 µM (inactive), the GI50 [32] was 14.1 µM (inactive) and the GI50 [33] was 17.9 µM (inactive). The GI50 [34] was 17.9 µM (inactive), the GI50 [35] was > 10 µM (inactive) and the GI50 [36] was 16.6 µM (inactive). For the same compound, the GI50 [37] was 28.1 µM (inactive), the GI50 [38] was 12.1 µM (inactive) and the GI50 [39] was 3.21 µM (inactive). The GI50 [40] was 19.7 µM (inactive), the GI50 [41] was 13.8 µM and the GI50 [42] was 24.9 µM (inactive). The GI50 [43] was 13.3 µM (inactive), the GI50 [44] was 16.4 µM (inactive) and the GI50 [45] was 17.5 µM (inactive). The GI50 [46] was 14.4 µM (inactive), the GI50 [47] was 17.7 µM (inactive) and the GI50 [48] was 16.9 µM (inactive). For the same compound, the GI50 [49] was 15.3 µM (inactive), the GI50 [50] was 5.77 µM (inactive) and the GI50 [51] was 19.9 µM (inactive).

`CC[C@@H](CCCC[C@@H]1CC[C@H]2CC(=O)C[C@@H]12)OC` was tested, and the GI50 [2] was > 100 µM (inactive), the GI50 [3] was 69.5 µM (inactive) and the GI50 [8] was 85.1 µM (inactive). For the same compound, the GI50 [9] was > 100 µM (inactive), the GI50 [11] was > 100 µM (inactive) and the GI50 [52] was 43.2 µM (inactive). For the same compound, the GI50 [13] was 66.7 µM (inactive), the GI50 [14] was > 100 µM (inactive) and the GI50 [15] was > 100 µM (inactive). For the same compound, the GI50 [17] was > 100 µM (inactive), the GI50 [18] was > 100 µM (inactive) and the GI50 [19] was > 100 µM (inactive). The GI50 [20] was > 100 µM (inactive), the GI50 [22] was > 100 µM (inactive) and the GI50 [26] was > 100 µM (inactive). The GI50 [53] was > 100 µM (inactive), the GI50 [32] was > 100 µM (inactive) and the GI50 [33] was > 100 µM (inactive). For the same compound, the GI50 [34] was > 100 µM (inactive), the GI50 [54] was 30.8 µM (inactive) and the GI50 [38] was > 100 µM (inactive). For the same compound, the GI50 [40] was > 100 µM (inactive), the GI50 [41] was over 100 µM and the GI50 [42] was > 100 µM (inactive). For the same compound, the GI50 [55] was > 100 µM (inactive), the GI50 [43] was > 100 µM (inactive) and the GI50 [44] was > 100 µM (inactive). The GI50 [45] was > 100 µM (inactive), the GI50 [46] was > 100 µM (inactive) and the GI50 [47] was 99.5 µM (inactive). For the same compound, the GI50 [56] was > 100 µM (inactive), the GI50 [48] was > 100 µM (inactive) and the GI50 [49] was > 100 µM (inactive). For the same compound, the GI50 [57] was > 100 µM (inactive).

For `CC1CCC2C(C)(C)CC3(C)CCC1C23O` (stereo not drawn), the GI50 [1] was 16.2 µM (inactive), the GI50 [2] was 13.3 µM (inactive) and the GI50 [3] was 16.2 µM (inactive). The GI50 [4] was 14.9 µM (inactive), the GI50 [6] was 16.4 µM (inactive) and the GI50 [7] was 29 µM (inactive). For the same compound, the GI50 [8] was 14.6 µM (inactive), the GI50 [10] was 11.2 µM (inactive) and the GI50 [11] was 16.3 µM (inactive). The GI50 [12] was 29.1 µM (inactive), the GI50 [52] was 1.63 µM (inactive) and the GI50 [13] was 18.1 µM (inactive). The GI50 [15] was 16.3 µM (inactive), the GI50 [16] was 16.3 µM (inactive) and the GI50 [17] was 16.7 µM (inactive). The GI50 [18] was 17.8 µM (inactive), the GI50 [19] was 15.3 µM (inactive) and the GI50 [20] was 12.3 µM (inactive). For the same compound, the GI50 [21] was 15.8 µM (inactive), the GI50 [23] was 18.3 µM (inactive) and the GI50 [24] was 14.8 µM (inactive). The GI50 [25] was 15.5 µM (inactive), the GI50 [26] was 16.1 µM (inactive) and the GI50 [27] was 13.3 µM (inactive). For the same compound, the GI50 [53] was 18.9 µM (inactive), the GI50 [28] was 16 µM (inactive) and the GI50 [30] was 14.6 µM (inactive). For the same compound, the GI50 [31] was 13 µM (inactive), the GI50 [32] was 16.3 µM (inactive) and the GI50 [33] was 16 µM (inactive). For the same compound, the GI50 [34] was 16.4 µM (inactive), the GI50 [35] was 14.1 µM (inactive) and the GI50 [36] was 16 µM (inactive). The GI50 [54] was 12.4 µM (inactive), the GI50 [37] was 17 µM (inactive) and the GI50 [38] was 22.1 µM (inactive). For the same compound, the GI50 [39] was 4.02 µM (inactive), the GI50 [40] was 16.1 µM (inactive) and the GI50 [58] was 15.1 µM (inactive). For the same compound, the GI50 [41] was 16.9 µM, the GI50 [42] was 12.7 µM (inactive) and the GI50 [43] was 14.2 µM (inactive). For the same compound, the GI50 [44] was 15.3 µM (inactive), the GI50 [45] was 17.7 µM (inactive) and the GI50 [46] was 16.9 µM (inactive). For the same compound, the GI50 [59] was 17.2 µM (inactive), the GI50 [47] was 14.6 µM (inactive) and the GI50 [56] was 18.8 µM (inactive). For the same compound, the GI50 [48] was 15.6 µM (inactive), the GI50 [49] was 18.5 µM (inactive) and the GI50 [57] was 12.7 µM (inactive). For the same compound, the GI50 [50] was 15.6 µM (inactive) and the GI50 [51] was 17 µM (inactive).

In the case of `CC(C)(C)Cc1cc(O)ccc1O`, the GI50 [1] was 42.2 µM (inactive), the GI50 [2] was > 100 µM (inactive) and the GI50 [3] was 33.3 µM (inactive). For the same compound, the GI50 [4] was > 100 µM (inactive), the GI50 [5] was > 100 µM (inactive) and the GI50 [6] was > 100 µM (inactive). The GI50 [7] was > 100 µM (inactive), the GI50 [9] was 27 µM (inactive) and the GI50 [10] was 36.4 µM (inactive). For the same compound, the GI50 [11] was > 100 µM (inactive), the GI50 [12] was 49.9 µM (inactive) and the GI50 [52] was 6.73 µM (inactive). For the same compound, the GI50 [13] was 93.3 µM (inactive), the GI50 [15] was 58.9 µM (inactive) and the GI50 [16] was 39.3 µM (inactive). The GI50 [18] was 70.8 µM (inactive), the GI50 [19] was > 100 µM (inactive) and the GI50 [20] was 24 µM (inactive). The GI50 [21] was 74.8 µM (inactive), the GI50 [22] was 87.9 µM (inactive) and the GI50 [23] was > 100 µM (inactive). The GI50 [24] was 61.1 µM (inactive), the GI50 [25] was 64.9 µM (inactive) and the GI50 [26] was 86.1 µM (inactive). For the same compound, the GI50 [27] was > 100 µM (inactive), the GI50 [53] was > 100 µM (inactive) and the GI50 [28] was 43.5 µM (inactive). The GI50 [29] was 60.5 µM (inactive), the GI50 [30] was > 100 µM (inactive) and the GI50 [31] was > 100 µM (inactive). For the same compound, the GI50 [32] was > 100 µM (inactive), the GI50 [33] was 61.9 µM (inactive) and the GI50 [34] was > 100 µM (inactive). The GI50 [36] was 46.2 µM (inactive), the GI50 [54] was 48.3 µM (inactive) and the GI50 [37] was 63.4 µM (inactive). For the same compound, the GI50 [38] was > 100 µM (inactive), the GI50 [39] was 26.5 µM (inactive) and the GI50 [40] was 77.3 µM (inactive). For the same compound, the GI50 [58] was 48.9 µM (inactive), the GI50 [41] was 34.7 µM and the GI50 [42] was 44 µM (inactive). The GI50 [55] was 51.9 µM (inactive), the GI50 [43] was > 100 µM (inactive) and the GI50 [44] was 60.3 µM (inactive). The GI50 [45] was > 100 µM (inactive), the GI50 [46] was 51.3 µM (inactive) and the GI50 [59] was 53 µM (inactive). The GI50 [47] was 35.6 µM (inactive), the GI50 [56] was 58.9 µM (inactive) and the GI50 [48] was 39.1 µM (inactive). For the same compound, the GI50 [49] was > 100 µM (inactive), the GI50 [57] was 43.2 µM (inactive) and the GI50 [50] was 63.5 µM (inactive). The GI50 [51] was 98.6 µM (inactive).
